Experimental data from ChEMBL document CHEMBL5608141, “Identification of compartment-specific drug sensitivities in CRC organoid-stroma co-cultures” (2024).

Legend:
Type in all cases: functional, Homo sapiens
Set-up in all cases: dose or concentration left out as unconfirmed
Colon cancer organoid [1] = assay: Identification of compartment-specific drug sensitivities in O06 CRC organoid-stroma F06 CAF co-cultures. Organoid is transduced with Lucferase2-P2A-EGFP lentivirus, fibroblast with Renilla-dsRed lentivirus. Dual-Glo Luciferase assay is used to report viability data.
Colon cancer organoid [2] = assay: Identification of compartment-specific drug sensitivities in O14 CRC organoid-stroma F14 CAF co-cultures. Organoid is transduced with Lucferase2-P2A-EGFP lentivirus, fibroblast with Renilla-dsRed lentivirus. Dual-Glo Luciferase assay is used to report viability data.
Colon cancer organoid [3] = assay: Identification of compartment-specific drug sensitivities in O20 CRC organoid-stroma F20 CAF co-cultures. Organoid is transduced with Lucferase2-P2A-EGFP lentivirus, fibroblast with Renilla-dsRed lentivirus. Dual-Glo Luciferase assay is used to report viability data.
[4] = Transduced with Lucferase2-P2A-EGFP lentivirus
[5] = Transduced with Renilla-dsRed lentivirus

Cc1c(Oc2ccc(F)cc2)c(OC(C)C)nn1-c1ccc(C2CC2)cn1 [IPP/CNRS-A019]
Cell Viability (Colon cancer organoid [1]; [4]): 92.46% | Cell Viability (Colon cancer organoid [1]; [5]): 90.9232% | Cell Viability (Colon cancer organoid [2]; [4]): 67.4569% | Cell Viability (Colon cancer organoid [2]; [5]): 79.6967% | Cell Viability (Colon cancer organoid [3]; [4]): 91.0165% | Cell Viability (Colon cancer organoid [3]; [5]): 118.396%

Cc1noc([C@H]2C[C@@H](c3ccc(C(F)(F)F)cc3)CN(C(=O)N3CCS(=O)(=O)C3)C2)n1 [BAY-448]
Cell Viability (Colon cancer organoid [1]; [4]): 64.3289% | Cell Viability (Colon cancer organoid [1]; [5]): 114.596% | Cell Viability (Colon cancer organoid [2]; [4]): 114.601% | Cell Viability (Colon cancer organoid [2]; [5]): 94.3368% | Cell Viability (Colon cancer organoid [3]; [4]): 115.252% | Cell Viability (Colon cancer organoid [3]; [5]): 84.5218%

c1ccc2oc(-c3csc(C4CCN(Cc5nc6ncccc6[nH]5)CC4)n3)cc2c1
Cell Viability (Colon cancer organoid [1]; [4]): 118.221% | Cell Viability (Colon cancer organoid [1]; [5]): 124.83% | Cell Viability (Colon cancer organoid [2]; [4]): 115.362% | Cell Viability (Colon cancer organoid [2]; [5]): 96.8387% | Cell Viability (Colon cancer organoid [3]; [4]): 55.8704% | Cell Viability (Colon cancer organoid [3]; [5]): 105.216%

O=C(N[C@H]1CCCCC/C=C\C2C[C@@]2(C(=O)O)NC(=O)[C@@H]2C[C@@H](Oc3ccncc3)CN2C1=O)OC1CCCC1 (some centres undefined) [BI 1675]
Cell Viability (Colon cancer organoid [1]; [4]): 164.286% | Cell Viability (Colon cancer organoid [1]; [5]): 81.7525% | Cell Viability (Colon cancer organoid [2]; [4]): 118.741% | Cell Viability (Colon cancer organoid [2]; [5]): 112.641% | Cell Viability (Colon cancer organoid [3]; [4]): 103.036% | Cell Viability (Colon cancer organoid [3]; [5]): 110.731%

COc1cc(OC)cc(-c2noc(N3CCN(C)C4(CCN(c5ccnc(C)c5)CC4)C3)n2)c1
Cell Viability (Colon cancer organoid [1]; [4]): 121.179% | Cell Viability (Colon cancer organoid [1]; [5]): 136.172% | Cell Viability (Colon cancer organoid [2]; [4]): 96.7615% | Cell Viability (Colon cancer organoid [2]; [5]): 90.1785% | Cell Viability (Colon cancer organoid [3]; [4]): 136.59% | Cell Viability (Colon cancer organoid [3]; [5]): 146.282%

COc1cc(C)c(Sc2cnc(NC(=O)c3ccc(CNC(C)C(C)(C)C)cc3)s2)cc1C(=O)N1CCN(C(C)=O)CC1 (centres undefined)
Cell Viability (Colon cancer organoid [1]; [4]): 97.8632% | Cell Viability (Colon cancer organoid [1]; [5]): 73.4932% | Cell Viability (Colon cancer organoid [2]; [4]): 52.0168% | Cell Viability (Colon cancer organoid [2]; [5]): 58.5352% | Cell Viability (Colon cancer organoid [3]; [4]): 91.6907% | Cell Viability (Colon cancer organoid [3]; [5]): 97.5626%

CCN(CC)S(=O)(=O)Nc1cccc(-c2ccc3c(NC(=O)C4CC4)n[nH]c3c2)c1
Cell Viability (Colon cancer organoid [1]; [4]): 76.8554% | Cell Viability (Colon cancer organoid [1]; [5]): 107.031% | Cell Viability (Colon cancer organoid [2]; [4]): 139.261% | Cell Viability (Colon cancer organoid [2]; [5]): 96.9304% | Cell Viability (Colon cancer organoid [3]; [4]): 76.1767% | Cell Viability (Colon cancer organoid [3]; [5]): 136.148%

CN(C)C/C=C/C(=O)Nc1cc2c(Nc3ccc(F)c(Cl)c3)ncnc2cc1O[C@H]1CCOC1.O=C(O)/C=C\C(=O)O.O=C(O)/C=C\C(=O)O [AFATINIB DIMALEATE]
Cell Viability (Colon cancer organoid [1]; [4]): 26.678% | Cell Viability (Colon cancer organoid [1]; [5]): 56.3894% | Cell Viability (Colon cancer organoid [2]; [4]): 29.0273% | Cell Viability (Colon cancer organoid [2]; [5]): 34.3509% | Cell Viability (Colon cancer organoid [3]; [4]): 37.8231% | Cell Viability (Colon cancer organoid [3]; [5]): 73.123%

Cc1nc(NC(=O)N2CCC[C@H]2C(N)=O)sc1-c1ccnc(C(C)(C)C(F)(F)F)c1 [ALPELISIB]
Cell Viability (Colon cancer organoid [1]; [4]): 74.6278% | Cell Viability (Colon cancer organoid [1]; [5]): 68.5217% | Cell Viability (Colon cancer organoid [2]; [4]): 47.6603% | Cell Viability (Colon cancer organoid [2]; [5]): 61.6268% | Cell Viability (Colon cancer organoid [3]; [4]): 70.8375% | Cell Viability (Colon cancer organoid [3]; [5]): 99.8659%

COc1cc(Nc2ccnc3ccc(Br)cc23)cc(OC)c1OC
Cell Viability (Colon cancer organoid [1]; [4]): 11.1317% | Cell Viability (Colon cancer organoid [1]; [5]): 122.349% | Cell Viability (Colon cancer organoid [2]; [4]): 56.2839% | Cell Viability (Colon cancer organoid [2]; [5]): 83.5621% | Cell Viability (Colon cancer organoid [3]; [4]): 3.207% | Cell Viability (Colon cancer organoid [3]; [5]): 235.19%

C=CC(=O)Nc1ccc2[nH]c(=O)n(C3CCN(C(=O)c4ccc(-c5nc6cc[nH]c(=O)c6cc5-c5ccccc5)cc4)CC3)c2c1
Cell Viability (Colon cancer organoid [1]; [4]): 100.634% | Cell Viability (Colon cancer organoid [1]; [5]): 129.997% | Cell Viability (Colon cancer organoid [2]; [4]): 66.8064% | Cell Viability (Colon cancer organoid [2]; [5]): 102.36% | Cell Viability (Colon cancer organoid [3]; [4]): 102.668% | Cell Viability (Colon cancer organoid [3]; [5]): 80.5582%

Cl.Cl.c1ccc([C@@H]2C[C@H]2NC2CCNCC2)cc1
Cell Viability (Colon cancer organoid [1]; [4]): 78.4875% | Cell Viability (Colon cancer organoid [1]; [5]): 97.0217% | Cell Viability (Colon cancer organoid [2]; [4]): 85.8382% | Cell Viability (Colon cancer organoid [2]; [5]): 107.738% | Cell Viability (Colon cancer organoid [3]; [4]): 42.8532% | Cell Viability (Colon cancer organoid [3]; [5]): 97.3617%

COc1ccccc1C(=O)Nc1cc2c(cc1N1CCNCC1C)n(C)c(=O)n2C (centres undefined)
Cell Viability (Colon cancer organoid [1]; [4]): 112.155% | Cell Viability (Colon cancer organoid [1]; [5]): 138.916% | Cell Viability (Colon cancer organoid [2]; [4]): 118.564% | Cell Viability (Colon cancer organoid [2]; [5]): 101.199% | Cell Viability (Colon cancer organoid [3]; [4]): 131.273% | Cell Viability (Colon cancer organoid [3]; [5]): 107.173%

CC(=O)N1CCC(c2ccc(C(=O)NC3=NCCN3)cc2C(F)(F)F)CC1 [BI 0054]
Cell Viability (Colon cancer organoid [1]; [4]): 124.071% | Cell Viability (Colon cancer organoid [1]; [5]): 95.7607% | Cell Viability (Colon cancer organoid [2]; [4]): 111.388% | Cell Viability (Colon cancer organoid [2]; [5]): 98.4803% | Cell Viability (Colon cancer organoid [3]; [4]): 121.714% | Cell Viability (Colon cancer organoid [3]; [5]): 122.015%

CCOC(=O)Nc1cc(-c2ccc(C)c(NS(C)(=O)=O)c2)nn2c(C)nnc12
Cell Viability (Colon cancer organoid [1]; [4]): 112.605% | Cell Viability (Colon cancer organoid [1]; [5]): 266.102% | Cell Viability (Colon cancer organoid [2]; [4]): 91.5211% | Cell Viability (Colon cancer organoid [2]; [5]): 161.373% | Cell Viability (Colon cancer organoid [3]; [4]): 38.74% | Cell Viability (Colon cancer organoid [3]; [5]): 177.965%

CC(C)(O)c1cncc(-c2nc3ccc(F)cc3n2C2CC2)c1 [MSD-CYP11B2]
Cell Viability (Colon cancer organoid [1]; [4]): 83.611% | Cell Viability (Colon cancer organoid [1]; [5]): 134.058% | Cell Viability (Colon cancer organoid [2]; [4]): 89.9575% | Cell Viability (Colon cancer organoid [2]; [5]): 101.392% | Cell Viability (Colon cancer organoid [3]; [4]): 80.182% | Cell Viability (Colon cancer organoid [3]; [5]): 128.543%

Cc1cn(-c2cc(NC(=O)c3ccc4c(c3)CN(c3cncnc3)C[C@@H]4C)cc(C(F)(F)F)c2)cn1
Cell Viability (Colon cancer organoid [1]; [4]): 82.9908% | Cell Viability (Colon cancer organoid [1]; [5]): 122.253% | Cell Viability (Colon cancer organoid [2]; [4]): 141.09% | Cell Viability (Colon cancer organoid [2]; [5]): 97.6954% | Cell Viability (Colon cancer organoid [3]; [4]): 88.3808% | Cell Viability (Colon cancer organoid [3]; [5]): 107.854%

NS(=O)(=O)c1cc(NC(=O)C2(c3ccccc3Cl)CC2)ccc1Oc1cccc(Cl)c1 [BAY-207]
Cell Viability (Colon cancer organoid [1]; [4]): 102.145% | Cell Viability (Colon cancer organoid [1]; [5]): 97.9535% | Cell Viability (Colon cancer organoid [2]; [4]): 120.584% | Cell Viability (Colon cancer organoid [2]; [5]): 143.533% | Cell Viability (Colon cancer organoid [3]; [4]): 177.814% | Cell Viability (Colon cancer organoid [3]; [5]): 111.752%

COc1cc2ncn(-c3cc(OCc4ccccc4C(F)(F)F)c(C(N)=O)s3)c2cc1OC [GW843682X]
Cell Viability (Colon cancer organoid [1]; [4]): 4.781% | Cell Viability (Colon cancer organoid [1]; [5]): 182.458% | Cell Viability (Colon cancer organoid [2]; [4]): 3.29% | Cell Viability (Colon cancer organoid [2]; [5]): 110.017% | Cell Viability (Colon cancer organoid [3]; [4]): 89.1479% | Cell Viability (Colon cancer organoid [3]; [5]): 152.214%
